# Experimental data as given in patent US6737383B1, “Herbicidal oxadiazolidines” (priority 1999, dated 2004).
# Legend:
# bedstraw = assay: Test B pre/postemergence bedstraw; type: in vivo, Galium aparine
# Method in brief: (§1)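 Herbicidal effect was estimated by eye on a ten-point control scale after plants spent twelve to sixteen days in a greenhouse following soil or foliar treatment. Foliar sprays targeted plants at one to four leaves; all doses were formulated in a non-phytotoxic solvent with surfactant.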
# surinam grass = assay: Test B pre/postemergence surinam grass; type: in vivo, Brachiaria decumbens
# Method in brief: as §1
# cocklebur = assay: Test B pre/postemergence cocklebur; type: in vivo, Xanthium strumarium
# Method in brief: as §1
# corn = assay: Test B pre/postemergence corn; type: in vivo, Zea mays
# Method in brief: as §1
# crabgrass = assay: Test B pre/postemergence crabgrass; type: in vivo, Digitaria sanguinalis
# Method in brief: as §1
# giant foxtail = assay: Test B pre/postemergence giant foxtail; type: in vivo, Setaria faberii
# Method in brief: as §1
# morningglory = assay: Test B pre/postemergence morningglory; type: in vivo, Ipomoea hederacea
# Method in brief: as §1
# pigweed = assay: Test B pre/postemergence pigweed; type: in vivo, Amaranthus retroflexus; details: for Plant response rating, Redroot pigweed: Postemergence
# Method in brief: as §1
# rape = assay: Test B pre/postemergence rape; type: in vivo, Brassica napus
# Method in brief: as §1
# soybean = assay: Test B pre/postemergence soybean; type: in vivo, Glycine max; details: for Plant response rating, Soybean: Postemergence
# Method in brief: as §1
# sugar beet = assay: Test B pre/postemergence sugar beet; type: in vivo, Beta vulgaris
# Method in brief: as §1
# velvetleaf = assay: Test B pre/postemergence velvetleaf; type: in vivo, Abutilon theophrasti; details: for Plant response rating, Velvetleaf: Postemergence
# Method in brief: as §1
# wheat = assay: Test B pre/postemergence wheat; type: in vivo, Triticum aestivum; details: for Plant response rating, Wheat: Postemergence
# Method in brief: as §1
# purple nutsedge = assay: Test B pre/postemergence purple nutsedge; type: in vivo, Cyperus rotundus
# Method in brief: as §1
# duck salad = assay: Test B flood test duck salad; type: in vivo, Heteranthera limosa
# Method in brief: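 Read-out is a visual response score from 0 (no effect) to 10 (complete control), assigned by comparison with untreated controls. Treatment was applied at the 2-leaf stage, and plants stayed in the greenhouse for twelve to sixteen days before scoring.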
# [1] = Postemergence, Rate 125 g/ha, scale 0 to 10, 0 is no effect, 10 is complete control
# [2] = Preemergence, Rate 62 g/ha, scale 0 to 10 (0 no effect, 10 complete control)
# [3] = Preemergence, Rate 125 g/ha, scale 0 to 10, 0 is no effect, 10 is complete control
# [4] = Preemergence, Rate 500 g/ha, scale of 0 to 10 where 0 is no effect and 10 is complete control
# [5] = Postemergence, Rate 62 g/ha, scale of 0 to 10, 0 is no effect, 10 is complete control
# [6] = Postemergence, Rate 500 g/ha, scale of 0 to 10 where 0 is no effect and 10 is complete control
# [7] = Rate 250 g/ha, Postemergence, scale of 0 to 10 where 0 is no effect and 10 is complete control
# [8] = Rate 500 g/ha, scale of 0 to 10 where 0 is no effect and 10 is complete control
# [9] = Rate 250 g/ha, scale of 0 to 10 where 0 is no effect and 10 is complete control
smiles,measurement,setting,value
CC(C)N(C(=O)n1oc(=O)n(C[Si](C)(C)C)c1=O)c1ccccc1 [Compound 577],Bedstraw plant response rating,bedstraw; [1],4
same,Bedstraw plant response rating,bedstraw; [2],0
same,Bedstraw plant response rating,bedstraw; [3],0
same,Bedstraw plant response rating (0 to 10 scale),"bedstraw; Preemergence, Rate 250 g/ha",0
same,Bedstraw plant response rating,bedstraw; [4],0
same,B. signalgrass plant response rating,surinam grass; [5],0
same,B. signalgrass plant response rating,surinam grass; [1],0
same,"Plant response rating, B. signalgrass",surinam grass; [6],3
same,B. signalgrass plant response rating,surinam grass; [2],0
same,B. signalgrass plant response rating,surinam grass; [3],3
same,"B. signalgrass plant response rating (0 to 10 scale, 0 is no effect, 10 is complete control)","surinam grass; Preemergence, Rate 250 g/ha",4
same,B. signalgrass plant response rating,surinam grass; [4],7
same,"Plant response rating, B. signalgrass",surinam grass; [7],0
same,Cocklebur plant response rating,cocklebur; [5],0
same,Cocklebur plant response rating,cocklebur; [1],0
same,"Plant response rating, Cocklebur",cocklebur; [6],2
same,Cocklebur plant response rating,cocklebur; [2],0
same,Cocklebur plant response rating,cocklebur; [3],0
same,Cocklebur plant response rating (0 to 10 scale),"cocklebur; Preemergence, Rate 250 g/ha",0
same,Cocklebur plant response rating,cocklebur; [4],0
same,"Plant response rating, Cocklebur",cocklebur; [7],0
same,Corn plant response rating,corn; [5],0
same,Corn plant response rating,corn; [1],0
same,"Plant response rating, Corn",corn; [6],2
same,Corn plant response rating,corn; [2],2
same,Corn plant response rating,corn; [3],2
same,Corn plant response rating (0 to 10 scale),"corn; Preemergence, Rate 250 g/ha",2
same,Corn plant response rating,corn; [4],3
same,"Plant response rating, Corn",corn; [7],0
same,Crabgrass plant response rating,crabgrass; [5],0
same,Crabgrass plant response rating,crabgrass; [1],0
same,"Plant response rating, Crabgrass",crabgrass; [6],3
same,Crabgrass plant response rating,crabgrass; [2],7
same,Crabgrass plant response rating,crabgrass; [3],9
same,Crabgrass plant response rating (0 to 10 scale),"crabgrass; Preemergence, Rate 250 g/ha",9
same,Crabgrass plant response rating,crabgrass; [4],10
same,"Plant response rating, Crabgrass",crabgrass; [7],3
same,Giant foxtail plant response rating,giant foxtail; [5],0
same,Giant foxtail plant response rating,giant foxtail; [1],2
same,"Plant response rating, Giant foxtail",giant foxtail; [6],8
same,Giant foxtail plant response rating,giant foxtail; [2],7
same,Giant foxtail plant response rating,giant foxtail; [3],8
same,Giant foxtail plant response rating (0 to 10 scale),"giant foxtail; Preemergence, Rate 250 g/ha",9
same,Giant foxtail plant response rating,giant foxtail; [4],10
same,"Plant response rating, Giant foxtail",giant foxtail; [7],2
same,Morningglory plant response rating,morningglory; [5],6
same,Morningglory plant response rating,morningglory; [1],9
same,"Plant response rating, Morningglory",morningglory; [6],10
same,Morningglory plant response rating,morningglory; [2],0
same,Morningglory plant response rating,morningglory; [3],0
same,Morningglory plant response rating (0 to 10 scale),"morningglory; Preemergence, Rate 250 g/ha",8
same,Morningglory plant response rating,morningglory; [4],9
same,"Plant response rating, Morningglory",morningglory; [7],10
same,"Plant response rating, Redroot pigweed",pigweed; [8],0
same,Redroot pigweed plant response rating,pigweed; [2],0
same,Redroot pigweed plant response rating,pigweed; [3],0
same,Redroot pigweed plant response rating (0 to 10 scale),"pigweed; Preemergence, Rate 250 g/ha",0
same,Redroot pigweed plant response rating,pigweed; [4],0
same,"Plant response rating, Redroot pigweed",pigweed; [9],0
same,Rape plant response rating,rape; [5],0
same,Rape plant response rating,rape; [1],0
same,"Plant response rating, Rape",rape; [6],0
same,Rape plant response rating,rape; [2],0
same,Rape plant response rating,rape; [3],0
same,Rape plant response rating (0 to 10 scale),"rape; Preemergence, Rate 250 g/ha",0
same,Rape plant response rating,rape; [4],0
same,"Plant response rating, Rape",rape; [7],0
same,"Plant response rating, Soybean",soybean; [8],5
same,Soybean plant response rating,soybean; [2],0
same,Soybean plant response rating,soybean; [3],0
same,Soybean plant response rating (0 to 10 scale),"soybean; Preemergence, Rate 250 g/ha",0
same,Soybean plant response rating,soybean; [4],0
same,"Plant response rating, Soybean",soybean; [9],3
same,Sugarbeets plant response rating,sugar beet; [2],0
same,Sugarbeets plant response rating,sugar beet; [3],0
same,Sugarbeets plant response rating (0 to 10 scale),"sugar beet; Preemergence, Rate 250 g/ha",0
same,Sugarbeets plant response rating,sugar beet; [4],0
same,"Plant response rating, Sugarbeets",sugar beet; [7],0
same,"Plant response rating, Velvetleaf",velvetleaf; [8],0
same,Velvetleaf plant response rating,velvetleaf; [2],4
same,Velvetleaf plant response rating,velvetleaf; [3],3
same,Velvetleaf plant response rating (0 to 10 scale),"velvetleaf; Preemergence, Rate 250 g/ha",3
same,Velvetleaf plant response rating,velvetleaf; [4],4
same,"Plant response rating, Velvetleaf",velvetleaf; [9],0
same,"Plant response rating, Wheat",wheat; [8],0
same,Wheat plant response rating,wheat; [2],0
same,Wheat plant response rating,wheat; [3],0
same,Wheat plant response rating (0 to 10 scale),"wheat; Preemergence, Rate 250 g/ha",0
same,Wheat plant response rating,wheat; [4],0
same,"Plant response rating, Wheat",wheat; [9],0
same,Nutsedge plant response rating,purple nutsedge; [5],0
same,"Plant response rating, Nutsedge",purple nutsedge; [6],0
same,Nutsedge plant response rating,purple nutsedge; [2],0
same,Nutsedge plant response rating,purple nutsedge; [3],0
same,Nutsedge plant response rating (0 to 10 scale),"purple nutsedge; Preemergence, Rate 250 g/ha",0
same,Nutsedge plant response rating,purple nutsedge; [4],0
same,"Plant response rating, Ducksalad (0 to 10 scale, 0 is no effect, 10 is complete control)","duck salad; Rate 62 g/ha, flood test species, Pre-emergence, visual evaluation after twelve to sixteen days",0
same,"Ducksalad plant response rating (0 to 10 scale, 0 is no effect, 10 is complete control)","duck salad; Rate 125 g/ha, under heading Pre-emergence, flood test species, visual evaluation after twelve to sixteen days",0
same,Ducksalad plant response rating,"duck salad; Rate 250 g/ha, Pre-emergence (flood test species), scale 0 to 10, 0 is no effect, 10 is complete control",0
same,Ducksalad plant response rating,"duck salad; Rate 500 g/ha, Pre-emergence section of Table B, 0 to 10 scale (0 no effect, 10 complete control)",0
